The text below walks through data of patent US10597405B2, “Chemical compounds” (ASTRAZENECA AB, priority 2017, dated 2020).

Assay [1] concerns the target T1, KRasG12C (Homo sapiens, UniProt P01116, G12C).
T1 construct: biotin (biotinylated); made in house
Kind of assay: KRasG12C Mass Spectrometry adducting assay. The following applies: 10 μM test compound, 4 μM KRasG12C, 4 hours reaction; single experiment or average of two or more. The class given is binding. As for the experimental part:
KRasG12C Mass Spectrometry Adducting Assay
Enzyme solutions were prepared in assay buffer containing 20 mM HEPES (pH 7.5), 5 mM MgCl2, and 150 mM NaCl. 4 μM GDP loaded biotinylated KRas^G12C was prepared in assay buffer and 50 μl added into each well of a 96 well polypropylene assay plate (Greiner, #651201) containing 500 nl of 1 mM test compounds (final concentration 10 μM), this was allowed to react for 4 hours before the addition of 50 μl 1% Formic acid to quench the reaction. The plate was sealed before reading on a Xevo G2 QTOF (Waters) and Acquity LC system (Waters). 10 μl of sample was injected onto a Xbridge BEH300; C4; 3.5 um; 2.1×50 mm column (Waters) running a 3 minute gradient. Blank samples were run in between each test sample.
Data was analysed in Mass Lynx software (Waters), the Total ion count (TIC) trace was used and the eluted protein peak data combined. Using the combined spectrum the data was deconvoluted using MaxEnt1 method. The peak area for apo-protein KRas^G12C (APO) and KRAS+relative cmpd mass (adduct) were measured, and a percentage adduct was calculated using the following calculation: Percent adduct=100*(area of adduct peak/(sum of APO+adduct peaks)

The target in assay [2] is T1, KRasG12C. Kind of assay: KRasG12C functional assay (HTRF nucleotide exchange / Raf RBD binding). The assay is classed as biochemical. Particulars: GDP loaded biotinylated KRasG12C, samples incubated 4 hrs, FRET readout; single experiment or average of two or more. As for the experimental part:
KRasG12C Functional Assay
All enzyme and substrate solutions were prepared in assay buffer containing 20 mM HEPES (pH 7.5), 5 mM MgCl2, 150 mM NaCl, and 0.01% Tween 20. […] In a separate mix 20 nM GST-Raf Ras binding domain (GST-Raf RBD, purified in house) and 4 μg/ml anti-GST XL665 antibody (Cisbio) was prepared in assay buffer containing 50 mM Potassium Fluoride and 0.05 mg/ml BSA and equilibrated for 4 hours before adding 0.6 μM Guanosine 5′-[γ-thio]triphosphate (GTPγS, Sigma) and 0.08 μM SOS (purified in house). 5 μl of the GST-RAF RBD mix was then dispensed into each well of the assay plate. […] This is detected simultaneously via the specific binding interaction between active GTPγS KRas^G12C with GST-Raf RBD which brings the europium and XL665 into close proximity enabling an increased FRET signal to be detected on a Pherastar (BMG) plate reader equipped with the HTRF filter module. […] IC50 values were calculated from normalised dose-response response FRET data curve fitted in Genedata screener (Basel, Switzerland).

As for `C=CC(=O)N1CCN2c3c(cnc4c(OC)c(-c5c(O)cccc5F)c(Cl)cc34)OC[C@H]2C1` (single isomer, unassigned) [Compound 24], on KRasG12C [1], the “KRasG12C M.S. Binding Mean adduct %” value was 96%. Also, the IC50 on KRasG12C [2] is 70 nM.

As for `C=CC(=O)N1CCN2c3c(cnc4c(F)c(-c5c(O)cccc5F)c(Cl)cc34)OC[C@H]2C1` (single isomer, unassigned) [Example 7], the “KRasG12C M.S. Binding Mean adduct %” value on KRasG12C [1] is given as 95%. This compound also had an IC50 on KRasG12C [2] of 20 nM.

Regarding `C=CC(=O)N1CCN2c3c(cnc4cc(-c5c(C)ccc6[nH]ncc56)c(Cl)cc34)OC[C@H]2C1` (single isomer, unassigned) [Example 3], the “KRasG12C M.S. Binding Mean adduct %” value at KRasG12C [1] is recorded as 93%. The IC50 on KRasG12C [2] was found to be 81 nM.

Turning to `C=CC(=O)N1CCN2c3c(cnc4cc(-c5c(O)cccc5F)c(Cl)cc34)OC[C@H]2C1` (single isomer, unassigned) [Example 2], the “KRasG12C M.S. Binding Mean adduct %” value at KRasG12C [1] amounted to 87%. Further, at KRasG12C [2], the IC50 is 281 nM.

As for `C=CC(=O)N1CCN2c3c(cnc4cc(-c5c(O)cccc5F)c(Cl)cc34)N(C)C(=O)C2(C)C1` (single isomer, unassigned) [Compound 33, 11-Chloro-10-(2-fluoro-6-hydroxyphenyl)-4a,6-dimethyl-3-(prop-2-enoyl)-2,3,4,4a-tetrahydro-1H-pyrazino[1′,2′:4,5]pyrazino[2,3-c]quinolin-5(6H)-one], the “KRasG12C M.S. Binding Mean adduct %” value at KRasG12C [1] is reported as 87%. On KRasG12C [2], the IC50 stood at 745 nM.

As to `C=CC(=O)N1CCN2c3c(cnc4c(F)c(-c5c(O)cccc5F)c(Cl)cc34)N(C)C(=O)C2C1` (single isomer, unassigned) [Example 18, 3-acryloyl-11-chloro-9-fluoro-10-(2-fluoro-6-hydroxyphenyl)-6-methyl-2,3,4,4a-tetrahydro-1H-pyrazino[1′,2′:4,5]pyrazino[2,3-c]quinolin-5(6H)-one], on KRasG12C [1], the “KRasG12C M.S. Binding Mean adduct %” value is reported as 3%. The compound also showed an IC50 at KRasG12C [2] of 3500 nM.

On to `C=CC(=O)N1CCN2c3c(cnc4cc(-c5c(C)ccc6[nH]c(=O)n(C)c56)c(Cl)cc34)OC[C@H]2C1` (single isomer, unassigned) [Compound 67], for which, on KRasG12C [1], the “KRasG12C M.S. Binding Mean adduct %” value is recorded as 97%. Besides, the IC50 at KRasG12C [2] worked out at 47 nM.

Consider `C=CC(=O)N1CCN2c3c(cnc4cc(-c5c(C)ccc6[nH]cnc56)c(Cl)cc34)OC[C@H]2C1` (single isomer, unassigned) [Compound 65], for which the “KRasG12C M.S. Binding Mean adduct %” value at KRasG12C [1] was 95%. Besides, the IC50 on KRasG12C [2] was determined as 47 nM.

Regarding `C=CC(=O)N1C[C@@H]2COc3cnc4cc(-c5c(O)cccc5F)c(Cl)cc4c3N2C[C@H]1C` [Example 11, 1-[(2R,4aR)-11-Chloro-10-(2-fluoro-6-hydroxyphenyl)-2-methyl-1,2,4a,5-tetrahydropyrazino[1′,2′:4,5][1,4]oxazino[2,3-c]quinolin-3(4H)-yl]prop-2-en-1-one], the “KRasG12C M.S. Binding Mean adduct %” value on KRasG12C [1] came out at 93%. On KRasG12C [2], this compound had an IC50 of 47 nM.

On to `C#Cc1cc2c3c(cnc2cc1-c1c(C)ccc2[nH]ncc12)OC[C@H]1CN(C(=O)C=C)CCN31` (single isomer, unassigned) [Compound 75], for which the “KRasG12C M.S. Binding Mean adduct %” value at KRasG12C [1] is reported as 96%. This compound also yielded an IC50 at KRasG12C [2] of 96 nM.

For `C=CC(=O)N1CCN2c3c(cnc4cc(-c5c(O)cccc5F)c(Cl)cc34)NC[C@H]2C1` [Example 13, 1-((4aS)-11-Chloro-10-(2-fluoro-6-hydroxyphenyl)-1,2,4,4a,5,6-hexahydro-3H-pyrazino[1′,2′:4,5]pyrazino[2,3-c]quinolin-3-yl)prop-2-en-1-one], the “KRasG12C M.S. Binding Mean adduct %” value at KRasG12C [1] is listed as 86%. The IC50 at KRasG12C [2] was 387 nM.

On to `C=CC(=O)N1CCN2c3c(cnc4cc(-c5c(C)ccc6cc[nH]c(=O)c56)c(Cl)cc34)OC[C@H]2C1` (single isomer, unassigned) [Compound 70], for which the “KRasG12C M.S. Binding Mean adduct %” value on KRasG12C [1] is on record as 94%. At KRasG12C [2], this compound registered an IC50 of 49 nM.

Turning to `C=CC(=O)N1CCN2c3c(cnc4cc(-c5c(C)ccc6[nH]c(=O)[nH]c56)c(Cl)cc34)OC[C@H]2C1` (single isomer, unassigned) [Compound 71], the “KRasG12C M.S. Binding Mean adduct %” value on KRasG12C [1] stood at 94%. Besides, the IC50 on KRasG12C [2] was 47 nM.

Turning to `C=CC(=O)N1CCN2c3c(nnc4cc(-c5c(O)cccc5F)c(Cl)cc34)OC[C@H]2C1` [Example 10, 1-((4aR)-11-Chloro-10-(2-fluoro-6-hydroxyphenyl)-1,2,4a,5-tetrahydropyrazino[1′,2′:4,5][1,4]oxazino[2,3-c]cinnolin-3(4H)-yl)prop-2-en-1-one], at KRasG12C [1], the “KRasG12C M.S. Binding Mean adduct %” value was 81%. Also, the IC50 at KRasG12C [2] came to 135 nM.

As to `C=CC(=O)N1CCN2c3c(cnc4cc(-c5c(C)ccc6[nH]c(=O)n(C)c56)c(Cl)cc34)OC[C@H]2C1` (single isomer, unassigned) [Compound 68], on KRasG12C [1], the “KRasG12C M.S. Binding Mean adduct %” value amounted to 4%. On KRasG12C [2], this compound came in with an IC50 of 11400 nM.

Regarding `C=CC(=O)N1C[C@@H]2C(=O)N(C)c3cnc4c(F)c(-c5c(O)cccc5F)c(Cl)cc4c3N2C[C@H]1C` (single isomer, unassigned) [Example 21], at KRasG12C [1], the “KRasG12C M.S. Binding Mean adduct %” value was 15%. The same compound registered an IC50 at KRasG12C [2] of 9500 nM.

Take `CN(C)C/C=C/C(=O)N1CCN2c3c(cnc4cc(-c5c(O)cccc5F)c(Cl)cc34)OC[C@H]2C1` [Example 9, (2E)-1-[(4aR)-11-Chloro-10-(2-fluoro-6-hydroxyphenyl)-1,2,4a,5-tetrahydropyrazino[1′,2′:4,5][1,4]oxazino[2,3-c]quinolin-3(4H)-yl]-4-(dimethylamino)but-2-en-1-one]: the “KRasG12C M.S. Binding Mean adduct %” value at KRasG12C [1] came out at 74%. This compound came in with an IC50 at KRasG12C [2] of 341 nM.

Turning to `C=CC(=O)N1CCN2c3c(cnc4c(C)c(-c5c(O)cccc5F)c(C)nc34)N(C)C(=O)[C@H]2C1` (single isomer, unassigned) [Compound 92], the “KRasG12C M.S. Binding Mean adduct %” value on KRasG12C [1] is given as 97%. Besides, the IC50 on KRasG12C [2] is 82 nM.

On KRasG12C [2], `C=CC(=O)N1CCN2c3c(cnc4cc(-c5c(O)cccc5F)c(Cl)cc34)OC[C@H]2C1` (single isomer, unassigned) [Mixture of 1 & 2] displayed an IC50 of 211 nM.

`C=CC(=O)N1C[C@@H]2COc3cnc4c(F)c(-c5c(O)cccc5F)c(F)cc4c3N2C[C@H]1C` (single isomer, unassigned) [Compound 63] had an IC50 at KRasG12C [2] of 1900 nM.

With `C[C@@H]1CN2c3c(cnc4c(F)c(-c5c(O)cccc5F)c(Cl)cc34)OC[C@H]2CN1C(=O)/C=C/CN(C)C` (single isomer, unassigned) [Compound 36], on KRasG12C [2], the IC50 was found to be 28100 nM.

As to `C#Cc1cc2c3c(cnc2cc1-c1c(C)ccc2[nH]ncc12)OC[C@H]1CN(C(=O)C=C)CCN31` (single isomer, unassigned) [Compound 76], at KRasG12C [2], the 50% inhibitory concentration (IC50) was found to be 931 nM.

Consider `C=CC(=O)N1CCN2c3c(cnc4c(F)c(-c5c(O)cccc5C(F)F)c(Cl)cc34)N(C)C(=O)[C@H]2C1` (single isomer, unassigned) [Compound 61], for which the IC50 on KRasG12C [2] was 38700 nM.

`C=CC(=O)N1CCN2c3c(cnc4c(F)c(-c5c(O)cccc5F)c(Cl)cc34)OC[C@H]2C1` (single isomer, unassigned) [Example 8]: the IC50 at KRasG12C [2] came out at 8500 nM.

Turning to `C=CC(=O)N1CCN2c3c(cnc4c(F)c(-c5c(O)cccc5C(F)F)c(Cl)cc34)N(C)C(=O)[C@H]2C1` (single isomer, unassigned) [Compound 62], at KRasG12C [2], the IC50 worked out at 37 nM.

Turning to `C=CC(=O)N1CCN2c3c(cnc4c(F)c(-c5c(O)ccc6ccccc56)c(Cl)cc34)N(C)C(=O)[C@H]2C1` (single isomer, unassigned) [Compound 55], at KRasG12C [2], the IC50 stood at 5900 nM.

In the case of `C=CC(=O)N1CCN2c3c(cnc4c(C)c(-c5c(O)cccc5F)c(C)nc34)N(C)C(=O)[C@H]2C1` (single isomer, unassigned) [Compound 91], the IC50 at KRasG12C [2] worked out at 35200 nM.

`C=CC(=O)N1CCN2c3c(cnc4c(F)c(-c5c(O)ccc6ccccc56)c(Cl)cc34)N(C)C(=O)[C@H]2C1` (single isomer, unassigned) [Compound 56] had an IC50 on KRasG12C [2] of 56 nM.

As for `C=CC(=O)N1CCN2c3c(cnc4cc(-c5c(C)ccc6[nH]ncc56)c(Cl)cc34)OC[C@@H]2C1` (single isomer, unassigned) [Example 5], at KRasG12C [2], the IC50 was determined as 5800 nM.

In the case of `C=CC(=O)N1C[C@@H]2C(=O)N(C)c3cnc4c(F)c(-c5c(C)ccc6[nH]cnc56)c(Cl)cc4c3N2C[C@H]1C` (single isomer, unassigned) [Compound 27], the IC50 on KRasG12C [2] came to 8800 nM.

At KRasG12C [2], `C=CC(=O)N1CCN2c3c(cnc4c(C)c(-c5c(O)cccc5F)c(C)cc34)N(C)C(=O)[C@H]2C1` (single isomer, unassigned) [Compound 44] had an IC50 of 142 nM.
